Test results as given in PMC4027214 (2014).

Tests used:
[1] = tested on: TFF1-ERE (DNA, duplex) AGGTCACGGTGGCCA/TGGCCACCGTGACCT; assay: NMR titration and solution structure; conditions: 50 mM sodium phosphate (Na+); pH 7, 25 °C; bis-intercalation, each drug one strong and one weak intercalation site
[2] = tested on: TFF1-ERE (DNA, duplex) AGGTCACGGTGGCCA/TGGCCACCGTGACCT; assay: fluorescent intercalator displacement (FID); conditions: 5 mM sodium phosphate (Na+); pH 7, 25 °C; ethidium bromide displaced; DNA 16.7 μM; fit assumes KD1 = KD2; apparent

binding [1]: yes
KD [2]: ~ 9.65 × 10^−7 M
SMILES: Cc1cccc2nc3cccc(C(=O)NCCNCCNCCNC(=O)c4cccc5nc6cccc(C)c6nc45)c3nc12
